Legend:
lung cancer cells [1] = assay: Local UV irradiation and immunofluorescence (6-4PP repair kinetics, XPA foci); type: cell-based, human; settings: for XPA foci-positive cells, Pt-PreC vs nonPreC: FIG. 7B
Method: Results are presented as mean±SD from three independent experiments. Differences were considered significant at the value of P<0.01 (**). FIGS. 8A to 8D show the upregulation of SIRT1 expression during PreC. […] GAPDH was used as a loading control. […] Histone H3 was used to indicate chromatin-enriched fraction. […] 60 minutes after local UV irradiation the 6-4PP foci-positive cells were counted from randomly selected 1000 cells in each sample. The bars and error bars represent the mean±s.d from three independent experiments. Differences were considered significant at the value of P<0.001 (***). […] After incubation for the recovery times the cells were fixed in 4% paraformaldehyde for 15 min, followed by conventional immunofluorescence staining procedures. UV-induced lesions were counter-labeled with anti-6-4PP antibody, and XPA foci-positive cells were counted for quantitative analysis. The images were captured using Nikon imaging software NIS-Elements 4.0.

SIRT1 [2] = target: T1, SIRT1 (Homo sapiens, UniProt Q96EB6); assay: XPA loading to chromatin (chromatin-enriched fraction, immunoblotting); settings: EX527 pretreatment before cisplatin following UV-PreC; FIG. 8B
T1 sequence (Q96EB6 1-747): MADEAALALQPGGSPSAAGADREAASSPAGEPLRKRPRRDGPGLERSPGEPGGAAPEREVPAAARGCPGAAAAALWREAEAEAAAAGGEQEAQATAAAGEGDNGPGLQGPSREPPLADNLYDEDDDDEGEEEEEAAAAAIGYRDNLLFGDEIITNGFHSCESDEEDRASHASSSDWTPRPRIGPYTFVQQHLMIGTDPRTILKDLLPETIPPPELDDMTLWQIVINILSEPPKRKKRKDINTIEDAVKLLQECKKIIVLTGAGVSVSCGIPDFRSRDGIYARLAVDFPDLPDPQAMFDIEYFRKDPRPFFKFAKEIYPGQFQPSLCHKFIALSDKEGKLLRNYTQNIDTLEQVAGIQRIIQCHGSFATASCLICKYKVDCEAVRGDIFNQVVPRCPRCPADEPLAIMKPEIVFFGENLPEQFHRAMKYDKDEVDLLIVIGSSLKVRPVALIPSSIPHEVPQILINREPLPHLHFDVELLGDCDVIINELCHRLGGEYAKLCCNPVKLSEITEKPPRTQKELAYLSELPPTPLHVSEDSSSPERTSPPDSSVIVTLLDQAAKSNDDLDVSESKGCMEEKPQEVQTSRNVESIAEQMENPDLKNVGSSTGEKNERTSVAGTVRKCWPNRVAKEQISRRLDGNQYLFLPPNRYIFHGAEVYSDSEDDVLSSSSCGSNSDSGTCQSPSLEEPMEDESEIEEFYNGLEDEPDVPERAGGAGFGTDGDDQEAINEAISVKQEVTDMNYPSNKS

SIRT1 [3] = target: T1, SIRT1; assay: XPA acetylation by immunoprecipitation of XPA and immunoblotting with anti-acetyl-lysine antibody; type: cell-based; settings: UV-PreC cells pretreated with EX527 for 5 h before cisplatin treatment; FIG. 8B
Method: PreC cells were pretreated with EX527 for 5 h before cisplatin treatment.
Antibodies used in this study include those against XPA (Kamiya), XPB-XPD (Santa Cruz Biotechnology, Santa Cruz, Calif., USA), XPE, p-p53, p-CHK1, GAPDH, SIRT1, acetyl-lysine (Cell Signaling Technology), XPF, and XPG (both Abcam, Cambridge, UK). For immunoprecipitation of XPA, 1 mg of whole-cell lysate was incubated with 1 μg of anti-XPA conjugated to Protein A/G-agarose beads (Sigma, St. Louis, Mo., USA) for 12 h at 4° C. with rotation. After washing with lysis buffer, proteins were eluted from the beads by boiling in SDS sample buffer and resolved on 10% SDS-polyacrylamide gels. For detection of XPA acetylation, anti-acetyl-lysine was employed.

lung cancer cells [4] = assay: Immunoslot blotting of Pt-GpG adduct removal after cisplatin preconditioning; type: cell-based, human
Method: FIGS. 4A and 4B show the enhanced Pt-GpG diadduct removal by Pt-PreC. […] The bars and error bars represent the mean±s.d from three independent experiments. A549 and H460 cells (American Type Culture Collection, Manassas, Va., USA) were cultured in Dulbecco's modified Eagle medium supplemented with 10% fetal bovine serum and 1% penicillin-streptomycin. 100% confluent cells were kept for additional four days to completely block cell proliferation and then exposed to the UV light using a germicidal lamp (for immunoslot blotting) or UV crosslinker (for immunofluorescence) emitting primarily UV-C light. A UV-C sensor (UV Products, Upland, Calif., USA) was used to calibrate the fluence rate of the incident light. For immunofluorescence staining, cells were grown on a glass coverslip coated with poly-D-lysine and laminin (BD Biosciences, San Jose, Calif., USA). For assessment of cell viability, CellTiter-Fluor Cell Viability Assay kit (Promega, Madison, Wis., USA) was used as indicated in manufacturer's protocol. Fluorescence plate reader (BIORAD, Hercules, Calif., USA) was used to measure a constitutive protease activity within live cells using a fluorogenic and cell permeable peptide substrate. […]

lung cancer cells [5] = assay: Immunoslot blotting of residual UV-induced CPDs after cisplatin preconditioning; type: cell-based, human; settings: preconditioning with 5 μM cisplatin; 5 or 10 J/m^2 UV; FIGS. 3B and 3C
Method: FIGS. 3A to 3C show the enhanced UV-induced CPD repair activity following Pt-PreC. […] After immunoslot blotting the membrane was counterstained with SYBR-Gold for a loading control of genomic DNA. 5 J/m^2 (FIG. 3B) or 10 J/m^2 (FIG. 3C) of UV-induced CPD repair kinetics were measured from cells conditioned with nonPreC or Pt-PreC.
A549 and H460 cells (American Type Culture Collection, Manassas, Va., USA) were cultured in Dulbecco's modified Eagle medium supplemented with 10% fetal bovine serum and 1% penicillin-streptomycin. 100% confluent cells were kept for additional four days to completely block cell proliferation and then exposed to the UV light using a germicidal lamp (for immunoslot blotting) or UV crosslinker (for immunofluorescence) emitting primarily UV-C light. A UV-C sensor (UV Products, Upland, Calif., USA) was used to calibrate the fluence rate of the incident light. For immunofluorescence staining, cells were grown on a glass coverslip coated with poly-D-lysine and laminin (BD Biosciences, San Jose, Calif., USA). For assessment of cell viability, CellTiter-Fluor Cell Viability Assay kit (Promega, Madison, Wis., USA) was used as indicated in manufacturer's protocol. Fluorescence plate reader (BIORAD, Hercules, Calif., USA) was used to measure a constitutive protease activity within live cells using a fluorogenic and cell permeable peptide substrate. […]

[6] = system: 6-4PP-containing DNA substrate; assay: Dual-incision NER activity assay with lysate of Pt-PreC cells; type: cell-based, human; settings: FIG. 5
Method: Dual-incision NER activity assay was performed using isotope-labeled and 6-4PP-containing linear substrate DNA and cell lysates obtained from nonPreC and Pt-PreC cells at the indicated times after PreC. Amount of excision product was used as a measure of the NER capacity of the lysate. Results are presented as mean±SD from three independent experiments. Differences were considered significant at the values of P<0.01 (**) and P<0.001 (***). Assay of NER activity in the cell lysate toward 6-4PP-containing DNA substrate was carried out. Briefly, 10 fmol of 140-bp duplex with a 6-4PP in the center and ^32P-label at the 5th phosphodiester bond 5′ to the site of the lesion was incubated with 70 μg of lysate in 25 μL of excision buffer at 30° C. for 1 h. The amount of excision product was used as a measure of NER capacity in the lysate. The 6-4PP-containing linear duplex substrate DNA and NER-competent cell lysate were prepared.

SMILES	effect on PreC-induced repair capacity (6-4PP repair kinetics) (lung cancer cells [1]; 1 μM EX-527 for 5 h before local UV irradiation, 6-4PP foci-positive cells counted 60 min after UV, FIG. 8C)	effect on UV-PreC-induced enhancement of XPA chromatin loading (SIRT1 [2])	effect on the UV-PreC-induced decrease in acetylation level of XPA (SIRT1 [3])	remaining Pt-GpG adduct after Pt-PreC (lung cancer cells [4]; 48 h after Pt-PreC with 5 μM of cisplatin, FIG. 4A)	Pt-GpG repair kinetics upon following cisplatin treatment, Pt-PreC vs nonPreC (lung cancer cells [4]; Pt-PreC 5 μM, then 10 μM cisplatin, FIG. 4B)	kinetics of CPD repair after the same dose of UV, preconditioned vs nonPreC (lung cancer cells [5])	6-4PP removal, Pt-PreC vs nonPreC control (lung cancer cells [1]; 200 J/m^2 local UV irradiation, FIG. 7A)	XPA foci-positive cells, Pt-PreC vs nonPreC (lung cancer cells [1]; 60 min after UV exposure)	XPA foci-positive cells, Pt-PreC vs nonPreC (lung cancer cells [1]; within 30 min of recovery time)	time after PreC at which NER activity peaked [6] [h]	time after PreC at which NER activity started to increase [6] [h]	time after PreC at which enhancement of NER capacity was no longer detected [6] [h]
NC(=O)C1CCCc2c1[nH]c1ccc(Cl)cc21 (stereo not drawn) [EX527, 6-chloro-2,3,4,9-tetrahydro-1H-carbazole-1-carboxamide]	compromised by SIRT1 inhibition	reduced in the presence of EX527	immediately reversed									
N.N.[Cl][Pt][Cl] [cisplatin]				no remaining Pt-GpG adduct	much faster	much faster	accelerated the 6-4PP removal	approximately 3 times less	no difference	48	12	72
